In patent US20100075960A1 (priority 2006, published 2010):
Structures can show the parent of a compound that is named as a salt.

Test system: HCT116
Assay: Inhibition of cell proliferation, HCT116
Type: cell-based
Conditions: Homo sapiens, HCT-116; 72 h treatment; methylene blue or CellTiter-Glo
Description: II. Inhibition of Cell Proliferation by PLK1 Inhibitors.
Exponentially growing cell lines of different tumor origins, cultured in appropriate media containing 10% fetal bovine serum at 37° C. in a 5% CO2 incubator were plated in 96 or 384-well plates. Twenty four hours post-plating, cells were treated with different concentrations of test compounds ranging from 20 μM to 0.04 nM. Several wells were left untreated as a control. Seventy two hours post-treatment, cell numbers were determined using different techniques; 100 μl per well of methylene blue (Sigma M9140) (0.5% in 50:50 Ethanol:water), or 10-100 μl per well of CellTiter-Glo (Promega #G7573), depending on well size. For methylene blue staining, stain was incubated at room temperature for 30 minutes before plates were rinsed and dye solubilized in 1% N-lauroyl sarcosine, sodium salt, (Sigma L5125, in PBS). Plates were read on a microplate reader, measuring the OD at 620 nm. For CellTiter-Glo, plates were incubated at room temperature for 15 minutes and the chemiluminescent signal was read on the Victor V or Envison 2100 reader.
Percent inhibition of cell growth was expressed as percent proliferation relative to 100% proliferation (control). Concentration of test compound that inhibited 50% of cell growth (IC50) was determined by 4 parameter fit of data using XLfit, (value of no cell control was substracted from all samples for background). The data are shown in Table 1 and Table 2 below and represent a compilation of several different experiments each performed using the general parameters outlined above, although minor variations may have been employed in some instances, in Table 1 and Table 2, +=IC50>1 μM; ++=IC50 0.5-1 μM: +++=IC50<0.5 μM.

Row | IC50 [nM] | SMILES
1 | < 500 | C[C@@H](Oc1cc(-n2cnc3cc(OC(F)(F)F)ccc32)sc1C(N)=O)c1cccc(OC2CCNCC2)c1Cl [Example 61]
2 | < 500 | C[C@@H](Oc1cc(-n2cnc3cc(-c4cnn(C)c4)ccc32)sc1C(N)=O)c1cccc(OCC2CCNCC2)c1Cl [Example 44, 3-[((1R)-1-{2-Chloro-3-[(4-piperidinylmethyl)oxy]phenyl}ethyl)oxy]-5-[5-(1-methyl-1H-pyrazol-4-yl)-1H-benzimidazol-1-yl]-2-thiophenecarboxamide trifluoroacetate]
3 | < 500 | C[C@@H](Oc1cc(-n2cnc3cc(Cl)c(F)cc32)sc1C(N)=O)c1cccc(OC2CCN(C)CC2)c1Cl [Example 68, 5-(5-Chloro-6-fluoro-1H-benzimidazol-1-yl)-3-[((1R)-1-{2-chloro-3-[(1-methyl-4-piperidinyl)oxy]phenyl}ethyl)oxy]-2-thiophenecarboxamide]
4 | 500 to 1000 | CN1CCC(Oc2cccc(COc3cc(-n4cnc5cc(-c6cnn(C)c6)ccc54)sc3C(N)=O)c2)CC1 [Example 84, 3-[({3-[(1Methyl-4piperidinyl)oxy]phenyl}methyl)oxy]-5-[5-(1-methyl-1H-pyrazol-4-yl)-1H-benzimidazol-1-yl]-2-thiophenecarboxamide]
5 | < 500 | C[C@@H](Oc1cc(-n2cnc3cc(Cl)ccc32)sc1C(N)=O)c1cccc(OC2CCN(CCO)CC2)c1Cl [Example 20, 5-(5-Chloro-1H-benzimidazol-1-yl)-3-{((1R)-1-(2-chloro-3-{[1-(2-hydroxyethyl)-4-piperidinyl]oxy}phenyl)ethyl]oxy}-2-thiophenecarboxamide]
6 | > 1000 | C[C@@H](Oc1cc(-n2cnc3ccc(CS(C)(=O)=O)cc32)sc1C(N)=O)c1cccc(OCC2CCNCC2)c1Cl [Example 56, 3-[((1R)-1-{2-chloro-3-[(4-piperidinylmethyl)oxy]phenyl}ethyl)oxy]-5-{6-[(methylsulfonyl)-methyl]-1H-benzimidazol-1-yl}-2-thiophenecarboxamide]
7 | < 500 | C[C@@H](Oc1cc(-n2cnc3ccc(Br)cc32)sc1C(N)=O)c1cccc(OC2CCNCC2)c1Cl [Example 7, 5-(6-Bromo-1H-benzimidazol-1-yl)-3-({(1R)-1-[2-chloro-3-(4-piperidinyloxy)phenyl]ethyl}oxy)-2-thiophenecarboxamide]
8 | < 500 | C[C@@H](Oc1cc(-n2cnc3cc(-c4ccc(NC5CCN(C)CC5)nc4)ccc32)sc1C(N)=O)c1cccc(OC2CCN(C)CC2)c1Cl [Example 18]
9 | < 500 | C[C@@H](Oc1cc(-n2cnc3cc(-c4cnn(C)c4)ccc32)sc1C(N)=O)c1c(F)ccc(OC2CCN(C)CC2)c1Cl [Example 38, 3-[((1R)-1-{2-Chloro-6-fluoro-3-[(1-methyl-4-piperidinyl)oxy]phenyl}ethyl)oxy]-5-[5-(1-methyl-1H-pyrazol-4-yl)-1H-benzimidazol-1-yl]-2-thiophenecarboxamide]
10 | < 500 | Cc1nnc(-c2ccc3c(c2)ncn3-c2cc(O[C@H](C)c3cccc(OC4CCN(C)CC4)c3Cl)c(C(N)=O)s2)o1 [Example 88]
11 | < 500 | C[C@@H](Oc1cc(-n2cnc3ccc(Cl)cc32)sc1C(N)=O)c1cccc(OC2CCN(C)CC2)c1Cl [Example 53, 5-(6-Chloro-1H-benzimidazol-1-yl)-3-[((1R)-1-(2-chloro-3-([1-methyl-4-piperidinyl)oxy]phenyl)}oxy]-2-thiophenecarboxamide]
12 | < 500 | C[C@@H](Oc1cc(-n2cnc3ccccc32)sc1C(N)=O)c1cccc(OCCN2CCOCC2)c1Cl [Example 15, 5-(1H-benzimidazol-1-yl)-3-{[(1R)-1-(2-chloro-3-{[2-(4-morpholinyl)ethyl]oxy}phenyl)ethyl]oxy)-2-thiophenecarboxamide]
13 | < 500 | C[C@@H](Oc1cc(-n2cnc3cc(F)c(Cl)cc32)sc1C(N)=O)c1cccc(OC2CCN(C)CC2)c1Cl [Example 70, 5-(6-Chloro-5-fluoro-1H-benzimidazol-1-yl)-3[((1R)-1-(2-chloro-3-[(1methyl-4-piperidinyl)oxy]phenyl}ethyl)oxy]-2-thiophenecarboxamide]
14 | < 500 | C[C@@H](Oc1cc(-n2cnc3ccc(OC(F)(F)F)cc32)sc1C(N)=O)c1cccc(OC2CCN(C)CC2)c1Cl [Example 64, 3-[((1R)-1-(2-chloro-3-[(1-methyl-4-piperidinyl)oxy]phenyl}ethyl)oxy]-5-{6-[(trifluoromethyl)oxy]-1H-benzimidazol-1-yl}-2-thiophenecarboxamide]
15 | < 500 | C[C@@H](Oc1cc(-n2cnc3ccc(Br)cc32)sc1C(N)=O)c1cccc(OC2CCN(C)CC2)c1Cl [Example 6, 5-(6-Bromo-1H-benzimidazol-1-yl)-3-[((1R)-1-{2-chloro-3-[(1-methyl-4-piperidinyl)oxy]phenyl}ethyl)oxy]-2-thiophenecarboxamide]
16 | < 500 | C[C@@H](Oc1cc(-n2cnc3cc(F)c(F)cc32)sc1C(N)=O)c1cccc(OC2CCNCC2)c1Cl [Example 65, 3-({(1R)-1-[2-chloro-3-(4-piperidinyloxy)phenyl]ethyl}oxy)-5-(5,6-difluoro-1H-benzimidazol-1-yl)-2-thiophenecarboxamide]
17 | < 500 | C[C@@H](Oc1cc(-n2cnc3cc(Cl)ccc32)sc1C(N)=O)c1cccc(OC2CCN(CCS(C)(=O)=O)CC2)c1Cl [Example 23, 5-(5-Chloro-1H-benzimidazol-1-yl)-3-({(1R)-1-[2-chloro-3-({1-[2-(methylsulfonyl)ethyl]-4-piperidinyl}oxy)phenyl]ethyl}oxy)-2-thiophenecarboxamide]
18 | < 500 | Cc1cc(-c2ccc3c(c2)ncn3-c2cc(O[C@H](C)c3cccc(OC4CCN(C)CC4)c3Cl)c(C(N)=O)s2)ccn1 [Example 50, 3-[((1R)-1-{2-Chloro-3-[(1-methyl-4-piperidinyl)oxy]phenyl}ethyl)oxy]-5-[5-(2-methyl-4-pyridinyl)-1H-benzimidazol-1-yl]-2-thiophenecarboxamide]
19 | > 1000 | CC(Oc1cc(-n2cnc3cc(-c4cnn(C)c4)ccc32)sc1C(N)=O)c1cccc(OC2CCNCC2)c1 (racemic) [Example 73, (±)-5-[5-(1-Methyl-1H-pyrazol-4-yl)-1H-benzimidazol-1yl[-3-({1-[3-(4-piperidinyloxy)phenyl]ethyl}oxy)-2-thiophenecarboxamide]
20 | < 500 | C[C@@H](Oc1cc(-n2cnc3cc(-c4cccnc4)ccc32)sc1C(N)=O)c1cccc(OC2CCN(C)CC2)c1Cl [Example 11, 3-[((1R)-1-[2-chloro-3-[(1-methyl-4-piperidinyl)oxy]phenyl}ethyl)oxy}-5-[5-(3-pyridinyl)-1H-benzimidazol-1-yl]-2-thiophenecarboxamide]
21 | < 500 | C[C@@H](Oc1cc(-n2cnc3ccc(C#N)cc32)sc1C(N)=O)c1cccc(OC2CCNCC2)c1Cl [Example 5, 3-{(1R)-1-[2-chloro-3-(piperidin-4-yloxy)phenyl]ethoxy}-5-(6-cyano-1H-benzimidazol-1-yl)thiophene-2-carboxamide]
22 | < 500 | COc1cc2ncn(-c3cc(O[C@H](C)c4cccc(OCC5CCN(C)CC5)c4Cl)c(C(N)=O)s3)c2cc1OC [Example 41, 5-[5,6-Bis(methyloxy)-1H-benzimidazol-1-yl]-3-{[(1R)-1-(2-chloro-3-{[(1-methyl-4-piperidinyl)methyl]oxy}phenyl)ethyl]oxy}-2-thiophenecarboxamide]
23 | < 500 | CC(C)N1CCC(Oc2cccc([C@@H](C)Oc3cc(-n4cnc5cc(Cl)ccc54)sc3C(N)=O)c2Cl)CC1 [Example 24, 5-(5-Chloro-1H-benzimidazol-1-yl)-3-{[(1R)-1-(2-chloro-3-{[1-(1-methylethyl)-4-piperidinyl]oxy}phenyl)ethyl]oxy}-2-thiophenecarboxamide]
24 | < 500 | C[C@@H](Oc1cc(-n2cnc3cc(Cl)c(Cl)cc32)sc1C(N)=O)c1cccc(OC2CCNCC2)c1Cl [Example 71, 3-({(1R)-1-[2-Chloro-3-(4-piperidinyloxy)phenyl]ethyl}oxy)-5-(5,6-dichloro-1H-benzimidazol-1-yl)-2-thiophenecarboxamide]
25 | < 500 | C[C@@H](Oc1cc(-n2cnc3cc(Cl)ccc32)sc1C(N)=O)c1cccc(OCCN2CCOCC2)c1Cl [Example 26, 5-(5-Chloro-1H-benzimidazol-1-yl)-3-{[(1R)-1-(2-chloro-3-{[2-(4-morpholinyl)ethyl]oxy}phenyl)ethyl]oxy}-2-thiophenecarboxamide]
26 | < 500 | Cc1ccc(-c2ccc3c(c2)ncn3-c2cc(O[C@H](C)c3cccc(OC4CCNCC4)c3Cl)c(C(N)=O)s2)cn1 [Example 9, 3-({(1R)-1-[2-chloro-3-(4-piperidinyloxy)phenyl]ethyl}oxy)-5-[5-(6-methyl-3-pyridinyl)-1H-benzimidazol-1-yl]-2-thiophenecarboxamide]
27 | < 500 | C[C@@H](Oc1cc(-n2cnc3cc(Cl)ccc32)sc1C(N)=O)c1cccc(OC[C@H]2CNCCO2)c1Cl [Example 27, 5-(5-Chloro-1H-benzimidazol-1-yl)-3-{[(1R)-1-(2-chloro-3-{[(2R)-2-morpholinomethyl]oxy}phenyl)ethyl]oxy}-2-thiophenecarboxamide]
